Reference: patent US10696615B2, “Prenylated hydroxystilbenes” (The University of Sydney, priority 2011, dated 2020)

Tests used:
[1] = test system: SNB-19; assay: NCI in vitro cancer screen, CNS Cancer; format: cell-based, human; conditions: SNB-19
[2] = test system: human tumor cell lines; assay: NCI in vitro cancer screen, whole panel (summary statements); format: cell-based
[3] = test system: CCRF-CEM; assay: NCI in vitro cancer screen, Leukemia; format: cell-based, human
[4] = test system: SK-MEL-28; assay: NCI in vitro cancer screen, Melanoma; format: cell-based, human; conditions: SK-MEL-28
[5] = test system: CAKI-1; assay: NCI in vitro cancer screen, Renal Cancer; format: cell-based, human; conditions: CAKI-1
[6] = test system: HT29; assay: NCI in vitro cancer screen, Colon Cancer; format: cell-based, human; conditions: HT29
[7] = test system: NCI-H322M; assay: NCI in vitro cancer screen, Non-Small Cell Lung Cancer; format: cell-based, human
[8] = test system: MDA-MB-468; assay: NCI in vitro cancer screen, Breast Cancer; format: cell-based, human; conditions: MDA-MB-468
[9] = test system: MDA-MB-231 (MDA-MB-231/ATCC); assay: NCI in vitro cancer screen, Breast Cancer; format: cell-based, human; conditions: MDA-MB-231
[10] = test system: HCT-15; assay: NCI in vitro cancer screen, Colon Cancer; format: cell-based, human; conditions: HCT-15
[11] = test system: NCI-H23; assay: NCI in vitro cancer screen, Non-Small Cell Lung Cancer; format: cell-based, human; conditions: NCI-H23
[12] = test system: OVCAR-4; assay: NCI in vitro cancer screen, Ovarian Cancer; format: cell-based, human; conditions: OVCAR-4
[13] = test system: M14; assay: NCI in vitro cancer screen, Melanoma; format: cell-based, human; conditions: M14
[14] = test system: HCT-116; assay: NCI in vitro cancer screen, Colon Cancer; format: cell-based, human; conditions: HCT-116
[15] = test system: SR; assay: NCI in vitro cancer screen, Leukemia; format: cell-based, human
[16] = test system: RPMI-8226; assay: NCI in vitro cancer screen, Leukemia; format: cell-based, human; conditions: RPMI-8226
[17] = test system: MALME-3M; assay: NCI in vitro cancer screen, Melanoma; format: cell-based, human
[18] = test system: DU-145; assay: NCI in vitro cancer screen, Prostate Cancer; format: cell-based, human; conditions: DU-145
[19] = test system: NCI-H460; assay: NCI in vitro cancer screen, Non-Small Cell Lung Cancer; format: cell-based, human; conditions: NCI-H460
[20] = test system: MCF7; assay: NCI in vitro cancer screen, Breast Cancer; format: cell-based, human; conditions: MCF7
[21] = test system: COLO 205; assay: NCI in vitro cancer screen, Colon Cancer; format: cell-based, human; conditions: COLO 205
[22] = test system: ADR-RES (NCI/ADR-RES); assay: NCI in vitro cancer screen, Ovarian Cancer; format: cell-based, human; conditions: Homo sapiens, NCI/ADR-RES
[23] = test system: HCC-2998; assay: NCI in vitro cancer screen, Colon Cancer; format: cell-based, human; conditions: HCC-2998
[24] = test system: UO-31; assay: NCI in vitro cancer screen, Renal Cancer; format: cell-based, human; conditions: UO-31
[25] = test system: EKVX; assay: NCI in vitro cancer screen, Non-Small Cell Lung Cancer; format: cell-based, human
[26] = test system: U251; assay: NCI in vitro cancer screen, CNS Cancer; format: cell-based, human; conditions: U251
[27] = test system: SK-MEL-2; assay: NCI in vitro cancer screen, Melanoma; format: cell-based, human; conditions: SK-MEL-2
[28] = test system: ACHN; assay: NCI in vitro cancer screen, Renal Cancer; format: cell-based, human
[29] = test system: UACC-257; assay: NCI in vitro cancer screen, Melanoma; format: cell-based, human; conditions: UACC-257
[30] = Homo sapiens, read-out: LC50 (the source's name)

COc1cc(/C=C/c2cc(O)cc(OC)c2CC=C(C)C)ccc1O [USYDS1, (E)-2-(3-methyl-2-buten-1-yl)-4′,5-dihydroxy-3,3′-dimethoxystilbene]
GI50 ([1]; Homo sapiens): 0.17 µM | CC50 [1, 30]: 51.5 µM | TGI [1]: 19.3 µM | GI50 ([2]; Homo sapiens, range over almost all types of tumor cells): 0.02 to 5 µM | fold more potent than piceatannol ([2]; inhibition of proliferation of almost all types of tumor cells): approximately 250 fold | order of potency in the inhibition of cancerous cell growth ([2]; result in words): most potent activity | TGI [3]: 24.6 µM | GI50 ([3]; Homo sapiens): 0.35 µM | CC50 [3, 30]: > 100 µM | GI50 ([4]; Homo sapiens): 10.9 µM | LC50 ([4]; Homo sapiens): 51.7 µM | TGI [4]: 23.8 µM | TGI [5]: 39.3 µM | GI50 ([5]; Homo sapiens): 4.77 µM | CC50 [5, 30]: > 100 µM | TGI [6]: 15.3 µM | GI50 ([6]; Homo sapiens, HT-29): 4.73 µM | CC50 ([6]; Homo sapiens, HT-29, read-out: LC50 (the source's name)): 44.4 µM | TGI [7]: 25.7 µM | GI50 ([7]; Homo sapiens): 11.8 µM | LC50 (50% lethal concentration) ([7]; Homo sapiens): 55.9 µM | GI50 ([8]; Homo sapiens): 0.36 µM | CC50 [8, 30]: 33.2 µM | TGI [8]: 8.37 µM | GI50 ([9]; Homo sapiens): 0.15 µM | CC50 [9, 30]: 61.2 µM | TGI [9]: 2.43 µM | TGI [10]: 16.1 µM | GI50 ([10]; Homo sapiens): 0.05 µM | CC50 [10, 30]: > 100 µM | GI50 ([11]; Homo sapiens): 0.28 µM | LC50 ([11]; Homo sapiens): 62.5 µM | TGI [11]: 15.1 µM | GI50 ([12]; Homo sapiens): 0.58 µM | CC50 [12, 30]: 52 µM | TGI [12]: 18.4 µM | GI50 ([13]; Homo sapiens): 0.04 µM | CC50 [13, 30]: 44 µM | TGI [13]: 13.9 µM | TGI [14]: 11.1 µM | GI50 ([14]; Homo sapiens): 0.3 µM | LC50 (concentration killing 50% of cells) ([14]; Homo sapiens): 40.4 µM | TGI [15]: 24.4 µM | GI50 ([15]; Homo sapiens): 0.04 µM | CC50 [15, 30]: > 100 µM | GI50 ([16]; Homo sapiens): 0.11 µM | CC50 [16, 30]: > 100 µM | TGI [16]: 14.8 µM | GI50 ([17]; Homo sapiens, Malme-3M): 3.47 µM | CC50 ([17]; Homo sapiens, Malme-3M, read-out: LC50 (the source's name)): 78.3 µM | TGI ([17]; MALME-3M): 25.8 µM | TGI [18]: 12.7 µM | GI50 ([18]; Homo sapiens): 0.06 µM | CC50 [18, 30]: 38.6 µM | GI50 ([19]; Homo sapiens): 0.23 µM | CC50 [19, 30]: 42 µM | TGI [19]: 1.38 µM | GI50 ([20]; Homo sapiens): 0.23 µM | CC50 [20, 30]: 52.9 µM | TGI [20]: 13.0 µM | TGI [21]: 16.1 µM | GI50 ([21]; Homo sapiens): 3.86 µM | CC50 [21, 30]: 42.6 µM | GI50 [22]: 0.03 µM | CC50 ([22]; read-out: LC50 (the source's name)): 70.7 µM | TGI [23]: 11.5 µM | GI50 ([23]; Homo sapiens): 1.07 µM | CC50 [23, 30]: 35.8 µM | GI50 ([24]; Homo sapiens): 0.25 µM | CC50 [24, 30]: 51.3 µM | TGI [24]: 16.0 µM | TGI [25]: 24.3 µM | GI50 ([25]; Homo sapiens): 10.8 µM | CC50 [25, 30]: 54.4 µM | GI50 ([26]; Homo sapiens, U-251): 0.37 µM | CC50 ([26]; Homo sapiens, U-251, read-out: LC50 (the source's name)): 36 µM | TGI [26]: 10.9 µM | GI50 ([27]; Homo sapiens): 0.32 µM | LC50 ([27]; Homo sapiens): 38 µM | TGI [27]: 10.6 µM | TGI [28]: 14.0 µM | GI50 ([28]; Homo sapiens): 0.07 µM | CC50 [28, 30]: 44.6 µM | GI50 ([29]; Homo sapiens): 2.53 µM | CC50 [29, 30]: 45.4 µM | TGI [29]: 17.7 µM
